The text below walks through data of paper PMC6681416, “Novel Derivatives of Deoxycholic Acid Bearing Linear Aliphatic Diamine and Aminoalcohol Moieties and their Cyclic Analogs at the C3 Position: Synthesis and Evaluation of Their In Vitro Antitumor Potential” (Molecules, 2019).

The subject of assay [1] is HuTu-80 cells. As to the kind of experiment: cells. Format: cell-based. From the text:
(§1) According to our previous data and data published by other research groups, chemical transformations of bile acids can greatly improve their antitumor potential. Thus, as the first step of evaluation of the biological activities of our novel DCA derivatives we assessed their effects on tumor cell viability. The cytotoxicity of the compounds was investigated with respect to a panel of cultured cell lines, including human duodenal HuTu-80, hepatocellular HepG2, cervical KB-3-1 and lung A549 carcinomas as well as murine macrophage RAW264.7 and non-transformed human fibroblasts hFF3 by MTT assay.
(§2) Human duodenal carcinoma HuTu-80 cells, human hepatocellular carcinoma HepG2 cells, human cervical carcinoma KB-3-1 cells, human lung carcinoma A549 cells were obtained from the Russian Cell Culture Collection (Institute of Cytology, RAS, St. Petersburg, Russia). Non-transformed human fibroblasts hFF3 were kindly provided by Dr. Olga Koval (Institute of Chemical Biology and Fundamental Medicine, SB RAS, Novosibirsk, Russia). RAW264.7 macrophages were kindly provided by Prof. Dr. Dmitry Kuprash (Engelhardt Institute of Molecular Biology, RAS, Moscow, Russia). The cells were cultured in DMEM (Sigma-Aldrich Inc., St. Louis, MO, USA) supplemented with 10% (v/v) heat-inactivated fetal bovine serum (FBS) (BioloT, St. Petersburg, Russia), 100 U/mL penicillin (ICN Biomedicals Inc., Costa Mesa, CA, USA), 100 µg/mL streptomycin and 0.25 µg/mL amphotericin; additionally, in the case of RAW264.7 cells, concentration of glucose in the medium was increased up to 4.5 mg/mL. The cells were incubated at 37 °C in 5% CO2 and 95% air (hereafter referred to as standard conditions). DCA derivatives were dissolved in DMSO to yield stock solutions of 10 mmol/L and stored at −20 °C prior to use.
(§3) Cells were seeded in triplicate in 96-well plates at a density of 5 × 10^3 (HuTu-80, HepG2, KB-3-1, hFF3), 10^4 (A549) or 5 × 10^4 (RAW264.7) cells per well. Cells were incubated under standard conditions for 24 h and then they were treated with varying doses of investigated derivatives for subsequent 24 h. Then 10 µL of MTT solution (5 mg/mL) were added to each wells and cells were incubated for an additional 2 h under standard conditions. The crystals of formazan forming within live cells were solubilized with DMSO and the absorbance was measured in a Multiscan RC plate reader (Thermo LabSystems, Helsinki, Finland) at a test and reference wavelengths of 570 nm and 620 nm, respectively. […] To perform SAR analysis, hierarchical clustering of compounds based on their IC50 values was fulfilled with Euclidean distance by using the Morpheus tool (https://software.broadinstitute.org/morpheus/), a platform designed for visualization and analysis of data in a matrix format. Heatmap, containing compounds’ SI values, were constructed by using the Excel 2010 software (Microsoft, Redmond, WA, USA). In order to reveal whether ROS participate in the induction of cell death by compound 9, HuTu-80 cells cultured in 96-well plate were pretreated by NAC at 2 mM for 1 h. Thereafter, the medium was replaced by fresh medium with compound 9 at 8 µM and the cells were incubated with subsequent 24 h under standard conditions. After this time period, the curves of cytotoxicity of compound 9 in the presence or absence of NAC were compared.

A further assay has as its system HepG2 cells. The experiment in a line: MTT cytotoxicity assay, HepG2. The class given is cell-based, human.
Source text: as §1, §2, §3

The subject of another assay is KB-3-1 cells. The experiment in a line: MTT cytotoxicity assay, KB-3-1. Format: cell-based, human.
Source text: as §1, §2, §3

For a further assay, the system named is A549 cells. As to the kind of experiment: MTT cytotoxicity assay, A549. The class given is cell-based, human.
Source text: as §1, §2, §3

In assay [2] the test system is non-transformed human fibroblasts hFF3. As to the kind of experiment: MTT cytotoxicity assay, hFF3. Format: cell-based. Conditions: HFF-3, 24 h, read-out: IC50 hFF3 (fibroblast).
Source text: as §1
as §2, with “DCA derivatives were dissolved in DMSO to yield stock solutions of 10 mmol/L and stored at −20 °C prior to use.” left out
Cells were seeded in triplicate in 96-well plates at a density of 5 × 10^3 (HuTu-80, HepG2, KB-3-1, hFF3), 10^4 (A549) or 5 × 10^4 (RAW264.7) cells per well. […] The crystals of formazan forming within live cells were solubilized with DMSO and the absorbance was measured in a Multiscan RC plate reader (Thermo LabSystems, Helsinki, Finland) at a test and reference wavelengths of 570 nm and 620 nm, respectively. […]

The test system of assay [3] is NO synthesis by IFNγ-activated RAW264.7 cells. The experiment in a line: Inhibition of NO production by stimulated macrophages (Griess). The following applies: Mus musculus, RAW264.7, 24 h, read-out: IC50NO. The class given is cell-based, murine. The protocol:
RAW264.7 cells were seeded in triplicate in 96-well plates at a density of 5 × 10^4 cells/well and incubated under standard conditions for 24 h. The cells were treated with 20 ng/mL of murine recombinant IFNγ (GIBCO, Gaithersburg, MD, USA), with or without (control) compounds at various concentrations for 24 h. The level of NO production was evaluated by determining the nitrite concentration in culture medium with a Griess Reagent System (Promega, Madison, WI, USA). The IC50^NO value was calculated as the derivative concentration required to decrease NO production to 50% of the non-treated control.

In assay [4] the test system is HuTu-80 cells. As to the kind of experiment: Mitochondrial membrane potential (JC-1). Format: cell-based, human. Conditions: 8 µM, control 18.7%. The protocol:
Next, in order to identify whether the compound 9 induces apoptotic cell death by triggering mitochondrial dysfunction, we analyzed its effect on mitochondrial membrane potential (Δψm) in HuTu-80 cells by using fluorescent cationic JC-1 dye (Figure 2B).
The mitochondrial-specific cationic dye JC-1 (Molecular Probes, Invitrogen, Carlsbad, CA, USA) accumulating in the mitochondria by potential-dependent manner was used to detect the effect of compound 9 on ∆ψM. Briefly, HuTu-80 cells were seeded in 6-well plates at a density of 5 × 10^5 cells/well for 24 h. Then cells were treated by compound 9 at 8 µM for 6, 18 or 24 h, collected by trypsinization, washed with PBS, and JC-1 (5 µg/mL) was added to the cells. After 30 min of incubation at 37 °C, the cells were centrifuged, washed with PBS and analyzed using NovoCyte Flow Cytometer (ACEA Biosciences Inc.).

For `COC(=O)CC[C@@H](C)[C@H]1CC[C@H]2[C@@H]3CC[C@@H]4CC(O)(CNCCCO)CC[C@]4(C)[C@H]3CC(=O)[C@]12C` (stereo partly drawn) [Compound 9, Methyl 3-hydroxy-3-((3-hydroxypropylamino)methyl)-12-oxo-5β-cholan-24-oate], the IC50 in the assay with HuTu-80 cells [1] (Homo sapiens, HuTu80, MTT, 24 h, read-out: IC50 HuTu-80 (duodenum)) is 4 ± 0.5 µM; in the assay with HepG2 cells (Homo sapiens, HepG2, MTT, 24 h, read-out: IC50 HepG2 (liver)), 7.3 ± 0.6 µM; in the assay on KB-3-1 cells (Homo sapiens, KB 3-1, MTT, 24 h, read-out: IC50 KB3-1 (cervix)), 22.8 ± 1.8 µM; in the assay on A549 cells (Homo sapiens, A549, MTT, 24 h, read-out: IC50 A549 (lung)) it was 29 ± 3.5 µM; in assay [2], 33.3 ± 1.2 µM; in assay [3] it was above 10 µM. Also, in the assay with HuTu-80 cells [1] (ratio IC50 hFF3 / IC50 HuTu-80), the “Selectivity index HuTu-80” value was found to be 8.3. In addition, the “Selectivity index HepG-2” value in the assay with HepG2 cells (ratio IC50 hFF3 / IC50 HepG2) is on record as 4.5. Further, the “Selectivity index KB-3-1” value in the assay on KB-3-1 cells (ratio IC50 hFF3 / IC50 KB-3-1) is 1.4. In addition, the “Selectivity index A549” value in the assay with A549 cells (ratio IC50 hFF3 / IC50 A549) worked out at 1.1. The results for the “cells with collapsed membrane potential (Low MMP)” value in the assay with HuTu-80 cells [4] (6 h), in the assay on HuTu-80 cells [4] (18 h) and with HuTu-80 cells [4] (24 h) were 38.2%, 68.6% and 78.8%, respectively.
